Holding throughout (format): biochemical
In one assay the target is T1, human a-thrombin (Homo sapiens, UniProt P00734).
T1 construct: enzyme (human a-thrombin (BioPharm® Lab.)); purchased BioPharm Lab
Kind of assay: Enzymatic assay for thrombin (fluorogenic peptide substrate Boc-VPR-AMC). The conditions noted are these: room temperature, 20 mM Hepes pH 7.4, 20 min. A digest of the protocol: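 Human α-thrombin was incubated with serially diluted compound and fluorogenic substrate Boc-VPR-AMC in 20 mM Hepes pH 7.4, 140 mM NaCl, 0.1% Tween 20 at room temperature. The reaction was stopped after 20 min with 0.1 M acetic acid and fluorescence read. % activity was normalized to DMSO and no-enzyme controls, and IC50 was taken as equivalent to Ki.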

For assay [1], the system named is Lectin Pathway Activation (LPA) in human serum. Kind of assay: Lectin pathway activation (LPA) assay in human serum, C4 deposition on mannan-coated plate. The conditions noted are these: 1% pooled human serum, 55 minutes, room temperature. Here is the method: A Microtiter ELISA plate (Nunc-Maxi Sorp; Sigma-Aldrich®, USA) was coated with mannan sourced from Saccharomyces cerevisiae (Sigma-Aldrich®, USA) in a coating buffer comprising 33.3 mM Na2CO3 and 166.67 mM NaHCO3. The plates were incubated at room temperature overnight. Subsequently, the plates were blocked with a 5% bovine serum albumin solution (Sigma-Aldrich®, USA) prepared in PBST for 2 hours at room temperature with agitation. Varying concentrations of MASP-2 inhibitors were dispensed onto the empty plate.
To perform the assay, pooled human serum was diluted to 1% in a solution of 20 mM HEPES (pH=7.4), 140 mM NaCl, and 1 mM MgCl2. Then, 40 μl of the diluted human serum was dispensed into each well of the Microtiter ELISA plate and incubated for 55 minutes at room temperature. The C4 deposition on the mannan-coated surface was stopped using an EDTA stop solution (20 mM HEPES, pH=7.4, 140 mM NaCl, and 150 mM EDTA). Subsequently, rabbit anti-Human C4c antibody (Agilent Technologies, USA) prepared in PBST was added, and the plates were incubated at room temperature for 30 minutes with agitation, then washed with PBST, and Goat anti-rabbit IgG(H+L) HRP-conjugated (Southern Biotech®, USA) was added. The plates were again incubated at room temperature for 30 minutes with agitation, and then were washed with PBST. Following this, the Amplex® UltraRed® (Thermo Fischer Sci, USA) substrate solution was added for 16 minutes, followed by the addition of the Amplex® UltraRed® stop solution. The plates' fluorescence was measured using an i3× microplate reader (Molecular Devices, USA) with excitation at 550 nm and emission at 580 nm. The raw data generated from the plate reader was exported to GraphPad Prism® (version 10.0.3), and the non-linear regression curve was generated using the 4-parameter logistic fit equation. All data are reported as pIC50 with a 95% confidence interval.

The target in a further assay is T2, MASP-2 (CCP1-CCP2-SP) (Homo sapiens, UniProt O00187).
T2 construct: 15 μL of Enzyme MASP-2 (CCP1-CCP2-SP) in Assay Buffer
T2 sequence (O00187 287-686 limits assumed): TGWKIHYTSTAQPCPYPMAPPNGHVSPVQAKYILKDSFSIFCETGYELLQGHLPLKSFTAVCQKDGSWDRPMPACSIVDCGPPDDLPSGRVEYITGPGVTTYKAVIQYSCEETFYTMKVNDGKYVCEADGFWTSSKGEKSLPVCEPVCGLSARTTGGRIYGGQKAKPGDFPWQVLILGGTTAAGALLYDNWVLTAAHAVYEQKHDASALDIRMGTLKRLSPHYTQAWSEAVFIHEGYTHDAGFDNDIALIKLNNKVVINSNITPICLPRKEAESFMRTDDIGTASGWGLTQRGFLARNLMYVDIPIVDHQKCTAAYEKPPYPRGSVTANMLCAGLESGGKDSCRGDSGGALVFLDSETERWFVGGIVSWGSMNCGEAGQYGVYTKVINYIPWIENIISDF
As to the kind of experiment: Enzymatic assay for MASP-2 inhibitory activity (fluorogenic substrate). The conditions noted are these: room temperature, 20 mM Hepes pH 7.4, 20 min. The gist of the method:
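Human MASP-2 CCP1-CCP2-SP construct with a C2-cleavage-site fluorogenic substrate in 20 mM HEPES pH 7.4, 140 mM NaCl, 0.1% Tween 20, 20 min at room temperature before acetic acid stop. Activity normalised to DMSO and no-enzyme controls; IC50 taken as equivalent to Ki under linear conditions.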

Each structure is given as a SMILES string. Structures can show the parent of a compound that is named as a salt.

As to `Cc1nc(N)ccc1CNC(=O)[C@@H]1CCc2ncc(NCc3ccc(-n4cccn4)cc3)c(=O)n21` [Compound 44, (S)-3-((4-(1H-pyrazol-1-yl)benzyl)amino)-N-((6-amino-2-methylpyridin-3-yl)methyl)-4-oxo-4,6,7,8-tetrahydropyrrolo[1,2-a]pyrimidine-6-carboxamide, trifluoroacetate], the inhibitory constant (Ki) at human a-thrombin is 10000 to 25000 nM; at MASP-2 (CCP1-CCP2-SP), less than 500 nM. The same compound yielded an IC50 in assay [1] of less than 500 nM.
Turning to `Cc1cc(C)cc(CNc2cnc3n(c2=O)[C@H](C(=O)NCc2cnc4c(c2)CNC4)CC3)c1` [Compound 22, (S)—N-((6,7-dihydro-5H-pyrrolo[3,4-b]pyridin-3-yl)methyl)-3-((3,5-dimethylbenzyl)amino)-4-oxo-4,6,7,8-tetrahydropyrrolo[1,2-a]pyrimidine-6-carboxamide, trifluoroacetate], the figures for the Ki at human a-thrombin and at MASP-2 (CCP1-CCP2-SP) were greater than 25000 nM and less than 500 nM, respectively. In assay [1], this compound displayed a half-maximal inhibitory concentration (IC50) of less than 500 nM.
As to `COc1cc(Cl)cc(CNc2cnc3n(c2=O)[C@H](C(=O)N[C@H](C)c2ccc(N)nc2)CC3)c1` [Compound 76, (S)-N-((R)-1-(6-aminopyridin-3-yl)ethyl)-3-((3-chloro-5-methoxybenzyl)amino)-4-oxo-4,6,7,8-tetrahydropyrrolo[1,2-a]pyrimidine-6-carboxamide], the inhibition constant Ki at human a-thrombin is 10000 to 25000 nM; on MASP-2 (CCP1-CCP2-SP), less than 500 nM. In assay [1], this compound registered an IC50 of less than 500 nM.
Consider `Cc1ccccc1CNc1cnc2n(c1=O)[C@H](C(=O)NCc1ccc(N)nc1C)CC2` [Compound 54, (S)—N-((6-amino-2-methylpyridin-3-yl)methyl)-3-((2-methylbenzyl)amino)-4-oxo-4,6,7,8-tetrahydropyrrolo[1,2-a]pyrimidine-6-carboxamide], for which the Ki on human a-thrombin was 500 to 2500 nM; on MASP-2 (CCP1-CCP2-SP), less than 500 nM. The same compound registered a half-maximal inhibitory concentration (IC50) in assay [1] of less than 500 nM.
Consider `Cc1cc(F)ccc1CNc1cnc2n(c1=O)[C@H](C(=O)NCc1ccc(N)nc1C)CC2` [Compound 62], for which the inhibitory constant (Ki) on human a-thrombin was 2500 to 10000 nM; on MASP-2 (CCP1-CCP2-SP) it was less than 500 nM. For the same compound, in assay [1], the IC50 is less than 500 nM.
Consider `Cc1cccc(CNc2cnc3n(c2=O)[C@H](C(=O)N[C@@H]2CCc4nc(N)ccc42)CC3)c1` [Compound 82, (S)—N—((R)-2-amino-6,7-dihydro-5H-cyclopenta[b]pyridin-5-yl)-3-((3-methylbenzyl)amino)-4-oxo-4,6,7,8-tetrahydropyrrolo[1,2-a]pyrimidine-6-carboxamide], for which the inhibition constant Ki at human a-thrombin is 500 to 2500 nM; on MASP-2 (CCP1-CCP2-SP) it was less than 500 nM. Besides, the half-inhibitory concentration (IC50) in assay [1] is less than 500 nM.
As for `Cc1ccc(C)c(CNc2cnc3n(c2=O)[C@H](C(=O)N[C@@H]2CCc4nc(N)ccc42)CC3)c1` [Compound 94], the inhibition constant (Ki) was 500 to 2500 nM at human a-thrombin and less than 500 nM on MASP-2 (CCP1-CCP2-SP). The IC50 in assay [1] was less than 500 nM.
Turning to `N#CC1C2CC1C2CNc1cnc2n(c1=O)[C@H](C(=O)N[C@@H]1CCc3nc(N)ccc31)CC2` (stereo partly drawn) [Compound 86, (6S)—N—((R)-2-amino-6,7-dihydro-5H-cyclopenta[b]pyridin-5-yl)-3-(((4-cyanobicyclo[1.1.1]pentan-2-yl)methyl)amino)-4-oxo-4,6,7,8-tetrahydropyrrolo[1,2-a]pyrimidine-6-carboxamide], the inhibitory constant (Ki) at human a-thrombin was greater than 25000 nM; on MASP-2 (CCP1-CCP2-SP) it was less than 500 nM. In assay [1], this compound returned a 50% inhibitory concentration (IC50) of less than 500 nM.
With `Cc1cc(C)cc(CNc2cnc3n(c2=O)[C@H](C(=O)NCc2ccc4cncn4c2)CC3)c1` [Compound 20, (S)-3-((3,5-dimethylbenzyl)amino)-N-(imidazo[1,5-a]pyridin-6-ylmethyl)-4-oxo-4,6,7,8-tetrahydropyrrolo[1,2-a]pyrimidine-6-carboxamide], the Ki was greater than 25000 nM on human a-thrombin and less than 500 nM at MASP-2 (CCP1-CCP2-SP). Besides, in assay [1], the concentration for half-maximal inhibition (IC50) is less than 500 nM.
For `Cc1cc(C)cc(CNc2cnc3n(c2=O)[C@H](C(=O)N[C@@H]2CCc4nc(N)ccc42)CC3)c1` [Compound 81, (S)—N—((R)-2-amino-6,7-dihydro-5H-cyclopenta[b]pyridin-5-yl)-3-((3,5-dimethylbenzyl)amino)-4-oxo-4,6,7,8-tetrahydropyrrolo[1,2-a]pyrimidine-6-carboxamide], the inhibition constant Ki was 500 to 2500 nM on human a-thrombin and less than 500 nM at MASP-2 (CCP1-CCP2-SP). Also, in assay [1], the IC50 is less than 500 nM.
On to `Cc1cc(C)cc(CNc2cnc3n(c2=O)[C@H](C(=O)NCc2cnc4[nH]cc(Cl)c4c2)CC3)c1` [Compound 18, (S)—N-((3-chloro-1H-pyrrolo[2,3-b]pyridin-5-yl)methyl)-3-((3,5-dimethylbenzyl)amino)-4-oxo-4,6,7,8-tetrahydropyrrolo[1,2-a]pyrimidine-6-carboxamide, trifluoracetate], for which the values for the inhibition constant (Ki) on human a-thrombin and at MASP-2 (CCP1-CCP2-SP) were 2500 to 10000 nM and less than 500 nM, respectively. Also, the IC50 in assay [1] was less than 500 nM.
For `Cc1nc(N)ccc1CNC(=O)[C@@H]1CCc2ncc(NCc3cccc(OC(F)F)c3)c(=O)n21` [Compound 75, (S)-N-((6-amino-2-methylpyridin-3-yl)methyl)-3-((3-(difluoromethoxy)benzyl)amino)-4-oxo-4,6,7,8-tetrahydro-pyrrolo[1,2-a]pyrimidine-6-carboxamide], the Ki on human a-thrombin was 500 to 2500 nM; at MASP-2 (CCP1-CCP2-SP) it was less than 500 nM. This compound gave a concentration for half-maximal inhibition (IC50) in assay [1] of less than 500 nM.
As for `N#Cc1cc(CNc2cnc3n(c2=O)[C@H](C(=O)N[C@@H]2CCc4nc(N)ccc42)CC3)cc(C(F)(F)F)c1` [Compound 90, (S)-N-((R)-2-amino-6,7-dihydro-5H-cyclopenta[b]pyridin-5-yl)-3-((3-cyano-5-(trifluoromethyl)benzyl)amino)-4-oxo-4,6,7,8-tetrahydropyrrolo[1,2-a]pyrimidine-6-carboxamide], the inhibition constant Ki on human a-thrombin is 500 to 2500 nM; at MASP-2 (CCP1-CCP2-SP) it was less than 500 nM. The half-maximal inhibitory concentration (IC50) in assay [1] is less than 500 nM.
With `Cc1ccc(F)c(CNc2cnc3n(c2=O)[C@H](C(=O)N[C@@H]2CCc4nc(N)ccc42)CC3)c1` [Compound 95], the Ki was 500 to 2500 nM at human a-thrombin and less than 500 nM on MASP-2 (CCP1-CCP2-SP). Further, the IC50 in assay [1] is less than 500 nM.
`Cc1nc(N)ccc1CNC(=O)[C@@H]1CCc2ncc(NCc3cccc(F)c3)c(=O)n21` [Compound 53, (S)—N-((6-amino-2-methylpyridin-3-yl)methyl)-3-((3-fluorobenzyl)amino)-4-oxo-4,6,7,8-tetrahydropyrrolo[1,2-a]pyrimidine-6-carboxamide]: the Ki at human a-thrombin is 500 to 2500 nM; at MASP-2 (CCP1-CCP2-SP), less than 500 nM. Also, in assay [1], the IC50 was less than 500 nM.
With `Cc1cc(C)cc(CNc2cnc3n(c2=O)[C@H](C(=O)NCc2cc4c(s2)CNC4)CC3)c1` [Compound 21, (S)—N-((5,6-dihydro-4H-thieno[2,3-c]pyrrol-2-yl)methyl)-3-((3,5-dimethylbenzyl)amino)-4-oxo-4,6,7,8-tetrahydropyrrolo[1,2-a]pyrimidine-6-carboxamide, trifluoroacetate], the Ki was 2500 to 10000 nM at human a-thrombin and less than 500 nM on MASP-2 (CCP1-CCP2-SP).
On the same counts, the results for `Cc1cc(C)cc(CNc2cnc3n(c2=O)[C@@H](C(=O)NCc2ccc(N)nc2)CC3)c1` [Compound 79] are greater than 25000 nM and less than 500 nM.
For the compound `COc1cc(Cl)cc(CNc2cnc3n(c2=O)[C@H](C(=O)NCc2ccc(N)nc2C)CC3)c1` [Compound 74, (S)-N-((6-amino-2-methylpyridin-3-yl)methyl)-3-((3-chloro-5-methoxybenzyl)amino)-4-oxo-4,6,7,8-tetrahydropyrrolo[1,2-a]pyrimidine-6-carboxamide], the inhibition constant (Ki) on human a-thrombin and on MASP-2 (CCP1-CCP2-SP) was less than 500 nM in each case.
For the compound `Cc1nc(N)ccc1CNC(=O)[C@@H]1CCc2ncc(NCc3ccccc3)c(=O)n21` [Compound 59], the results for the inhibition constant (Ki) on human a-thrombin and on MASP-2 (CCP1-CCP2-SP) were 2500 to 10000 nM and less than 500 nM, respectively.
On the same counts, the results for `Cc1nc(N)ccc1CNC(=O)[C@@H]1CCc2ncc(NCc3cccc(C(F)(F)F)c3F)c(=O)n21` [Compound 42, (S)-N-((6-amino-2-methylpyridin-3-yl)methyl)-3-((2-fluoro-3-(trifluoromethyl)benzyl)amino)-4-oxo-4,6,7,8-tetrahydro-pyrrolo[1,2-a]pyrimidine-6-carboxamide, di-trifluoroacetate] are 500 to 2500 nM and less than 500 nM.

Values taken from patent US20240228499A1, “MASP-2 INHIBITORS AND METHODS OF USE” (Omeros Corporation, priority 2022, published 2024).
